# Laboratory results reported in PubChem BioAssay (NCI).
#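 Step 1: Grow cells in 96-well plates. Step 2: Expose to compound for 48 hours at 5 concentrations. Step 3: Interpolate endpoints linearly; if unreached, use highest concentration. Abbreviation: GI50, concentration required for 50% inhibition of growth. TGI marks complete inhibition of growth.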
# Test system: HT29 colon
# Test: NCI-60 cell line screen, 48 h
row,Structure (SMILES),TGI [µM]
1,COc1ccccc1N1C(=O)/C(=C\c2cccc(Oc3ccccc3)c2)SC1c1ccccc1 (stereo not given),> 100
2,Cc1ccc(S(=O)(=O)OC2C3OC(C)(C)OC3OC2C(c2cc(O)c3c(c2O)C(=O)c2ccccc2C3=O)c2cc(O)c3c(c2O)C(=O)c2ccccc2C3=O)cc1 (stereo not given),> 10
3,N#Cc1nc(COCCOCc2ccccc2)oc1N,> 100
4,CC1CN=C(Nc2ccc(S(N)(=O)=O)cc2)S1 (stereo not given),> 100
5,COC1(OC)C2(Cl)CCC1(Cl)C(OC(C)=O)C2 (stereo not given),> 100
6,O=P(O)(O)CN1CCN(CP(=O)(O)O)CCN(CP(=O)(O)O)CCN(CP(=O)(O)O)CC1,> 100
7,CC(C)NC(=O)OCc1c(COC(=O)NC(C)C)c(-c2ccc[n+](COC(=O)CC(C)(C)C)c2)n2c1CCC2,> 100
8,C=C(C)[C@@H](C(=O)OC)N1C(=O)c2ccccc2C1=O,> 100
9,CO/N=C(\C(=O)Nc1cncs1)c1csc(NC(c2ccccc2)(c2ccccc2)c2ccccc2)n1,> 10
10,CCCN(CCCCC(NC(C)=O)C(=O)NCc1ccccc1)C(=O)N(CCCl)N=O (stereo not given),> 100
11,O=C(CNc1ccc(Cl)cc1)Nn1c(-c2ccccc2)nc2ccccc2c1=O,21.1
12,COc1cc(C2c3cc4c(cc3[C@H](OCCN(C)C)[C@@H]3COC(=O)C23)OCO4)cc(OC)c1O (stereo not given in full),3.01
13,CCCCn1c(C)c(C(=O)OCC)c2cc(OCc3ccc(C(=O)Nn4c(C)ccc4C)cc3)c(Br)cc21,> 100
14,O=C(CC(=O)N(C(=O)c1ccccc1)c1ccc(Cl)cc1)N/N=C\c1cc(N=Nc2ccccc2Cl)ccc1O,> 100
15,Cc1cccc2c(N)c3cccc(C(=O)NCCCNCCN)c3nc12,16.3
16,CN1CCC(OC(=O)Oc2ccccc2)(c2ccccc2)CC1,26
17,CCOC(=O)/C(O)=C(/C=NC(=S)c1ccncc1)C(=O)OCC,> 100

# Test system: HCT-15 colon
# Test: NCI-60 cell line screen, 48 h
Structure (SMILES),TGI [µM],GI50 [µM]
Cc1nc(N)c(N2CCNCC2)c(=O)[nH]1,> 100,
Brc1ccc2c(-c3nc(-c4c[nH]c5ccc(Br)cc45)cs3)c[nH]c2c1,13.1,
O=C1NNC(=O)C2C3c4ccccc4C(c4ccccc43)C12 (stereo not given),> 100,
O=c1[nH]nc(-c2cccc(Br)c2)[nH]1,> 100,
CCOC(=O)C(Cl)(NC(=O)c1ccc(F)cc1)C(F)(F)F (stereo not given),> 100,
COc1ccccc1N1C(=O)/C(=C\c2cccc(Oc3ccccc3)c2)SC1c1ccccc1 (stereo not given),> 100,
Cc1ccc(S(=O)(=O)OC2C3OC(C)(C)OC3OC2C(c2cc(O)c3c(c2O)C(=O)c2ccccc2C3=O)c2cc(O)c3c(c2O)C(=O)c2ccccc2C3=O)cc1 (stereo not given),> 10,
N#Cc1nc(COCCOCc2ccccc2)oc1N,> 100,
CC1CN=C(Nc2ccc(S(N)(=O)=O)cc2)S1 (stereo not given),> 100,
COC1(OC)C2(Cl)CCC1(Cl)C(OC(C)=O)C2 (stereo not given),> 100,
O=P(O)(O)CN1CCN(CP(=O)(O)O)CCN(CP(=O)(O)O)CCN(CP(=O)(O)O)CC1,77.7,
CC(C)NC(=O)OCc1c(COC(=O)NC(C)C)c(-c2ccc[n+](COC(=O)CC(C)(C)C)c2)n2c1CCC2,> 100,
C=C(C)[C@@H](C(=O)OC)N1C(=O)c2ccccc2C1=O,> 100,
CO/N=C(\C(=O)Nc1cncs1)c1csc(NC(c2ccccc2)(c2ccccc2)c2ccccc2)n1,> 10,
CCCN(CCCCC(NC(C)=O)C(=O)NCc1ccccc1)C(=O)N(CCCl)N=O (stereo not given),> 100,
O=C(CNc1ccc(Cl)cc1)Nn1c(-c2ccccc2)nc2ccccc2c1=O,18.9,
COc1cc(C2c3cc4c(cc3[C@H](OCCN(C)C)[C@@H]3COC(=O)C23)OCO4)cc(OC)c1O (stereo not given in full),> 100,0.344
CCCCn1c(C)c(C(=O)OCC)c2cc(OCc3ccc(C(=O)Nn4c(C)ccc4C)cc3)c(Br)cc21,> 100,
O=C(CC(=O)N(C(=O)c1ccccc1)c1ccc(Cl)cc1)N/N=C\c1cc(N=Nc2ccccc2Cl)ccc1O,> 100,
Cc1cccc2c(N)c3cccc(C(=O)NCCCNCCN)c3nc12,> 100,
CN1CCC(OC(=O)Oc2ccccc2)(c2ccccc2)CC1,36.8,
CCOC(=O)/C(O)=C(/C=NC(=S)c1ccncc1)C(=O)OCC,> 100,

# Test system: SR leukemia
# Test: NCI-60 cell line screen, 48 h
row,Structure (SMILES),TGI [µM]
1,Cc1nc(N)c(N2CCNCC2)c(=O)[nH]1,> 100
2,Brc1ccc2c(-c3nc(-c4c[nH]c5ccc(Br)cc45)cs3)c[nH]c2c1,13
3,O=C1NNC(=O)C2C3c4ccccc4C(c4ccccc43)C12 (stereo not given),> 100
4,O=c1[nH]nc(-c2cccc(Br)c2)[nH]1,> 100
5,CCOC(=O)C(Cl)(NC(=O)c1ccc(F)cc1)C(F)(F)F (stereo not given),> 100
6,COc1ccccc1N1C(=O)/C(=C\c2cccc(Oc3ccccc3)c2)SC1c1ccccc1 (stereo not given),> 100
7,Cc1ccc(S(=O)(=O)OC2C3OC(C)(C)OC3OC2C(c2cc(O)c3c(c2O)C(=O)c2ccccc2C3=O)c2cc(O)c3c(c2O)C(=O)c2ccccc2C3=O)cc1 (stereo not given),> 10
8,N#Cc1nc(COCCOCc2ccccc2)oc1N,> 100
9,CC1CN=C(Nc2ccc(S(N)(=O)=O)cc2)S1 (stereo not given),> 100
10,COC1(OC)C2(Cl)CCC1(Cl)C(OC(C)=O)C2 (stereo not given),> 100
